The assay concerns Mycobacterium tuberculosis. The assay can be described thus: Antitubercular activity against Mycobacterium tuberculosis at 12.5 ug/mL by TAACF method. The class given is functional.

As usually defined, the inhibition is the change of the read-out against control, counted positive when it falls. Read a high inhibition as a strong effect. On to `CC1=CCC[C@H]2[C@](C)(CCC3=CC(=O)OC3O)[C@@H](C)CC[C@]12C` (stereo partly specified), for which at 12.5 µg/mL the inhibition was 85%.

These data come from ChEMBL document CHEMBL1155639, “Synthesis of 16,18-dihydroxycleroda-3,13Z-dien-16,15-olide, (+)-16-hydroxycleroda-3,13Z-dien-16,15-olide, and (-)-hydroxyhalima-5(10),13-dien-16,15-olide from (+)-hardwickiic acid” (2000).
